Measurements from patent EP1206941A1, “ACTIVITY PO[…] CHEMOTHERAPEUTICS, ANTICANCER COMPOSITIONS AND METHOD FOR POTENTIATING THE ACTIVITY OF CHEMOTHERAPEUTICS” (HISAMITSU PHARMACEUTICAL CO. INC., priority 1999, dated 2001).
Read-outs that look alike come from different tables or passages of the source. *1 amine or outer side, *2 acyl side, *3 side chain or, on linkers, in order; H or OH if unused. Where a SMILES comes first, the peptide text is derived from it. Bridges are numbered along the chain shown (N, C = ends). Roman numbers before positions name the chains, in order. [ ]: non-standard residue; d: D form. Actinocin(9to1) = Cc1c2oc3c(C)ccc(C(=O)[*:1])c3nc-2c(C(=O)[*:2])c(N)c1=O; NMeV = CN[C@H](C(=O)O)C(C)C; Sar = CNCC(=O)O

System: Murine melanoma B16 · BL6 cells
Assay: Assay for apoptosis-inducing activity (TNF bioassay, crystal violet staining)
Format: cell-based
Settings: for potentiation of apoptosis-inducing activity: ED50 alone versus ED50 in the presence of peptide (SEQ ID NO:2) 50 µg/ml; for EC50: Mus musculus, B16-BL6, 19 h, 19 hours, Probit method, read-out: ED50 (apoptosis-inducing activity)
Procedure: The potentiating effects on the apoptosis-inducing activity of chemotherapeutic agents were evaluated based on whether or not the apoptosis-inducing activity of anticancer agents of the apoptosis-inducing type would be affected by the combined use of the aforementioned synthetic peptide.
Specifically, the apoptosis-inducing activity of anticancer agents of three kinds of apoptosis-inducing type agents was compared between the presence of the peptide and the absence of the peptide. Determination of the apoptosis-inducing activity was carried out according to TNF bioassay (K. Hirano et al., J. Biochem., 105, 120, 1989). The details are provided below.
A 96-well was coated with human plasma fibronectin at a concentration of 5 µg/ml (prepared according to the method of Fukai et al., J. Biol. Chem., 266, 8807, 1991) and was subjected to blocking with bovine serum albumin (Sigma), after which it was suspended in a serum-free culture: the culture was a mixture of Dulbeccos Modified Eagle Medium and Ham F12 medium at a volume ratio of 1:1 and will be referred to as DMEM/Ham medium hereafter (Nissui Pharmaceutical Co. Ltd.). Murine melanoma B16 · BL6 cells were inoculated onto the plate at 2x10^4 cells/well. After cell adhesion and distention were confirmed by cultivating the cells at 37 °C and under 5% CO2 atmosphere for 2 hours, the culture supernatant was removed and a mixed solution comprising a chemotherapeutic agent and the peptide was added thereto. Cultivation was conducted for 19 hours. The peptide was prepared to give a final concentration of 50 µg/ml, and the chemotherapeutic agents were dissolved in DMEM/Ham medium at a variety of concentrations. As controls, only the peptide and only the chemotherapeutic agent at the same concentrations as those described were added. Cultivation was conducted for 19 hours. In Example 9 doxorubicin (abbreviated as DOX) was used; in Example 10 VCR was used; and in Example 11 AcD was used. DOX was also purchased from Sigma. After cultivation, the above mixed solution was removed and exchanged with a DMEM/HaM medium containing 10% bovine fetal serum (URH Biosciences) for further cultivation overnight. After fixing with 5% formaldehyde (Wako Pure Chemical Industries Ltd.), the cells having undergone apoptosis were removed through washing and the cells adhered to the plate were stained with a 0.5% crystal violet solution. Excessive dye was washed out with water. After lyzing the cells with 1% SDS and extracting the dye, absorbance at a wavelength of 595 nm was measured with a microplate reader (Spectra Rainbow Thermo; Wako Pure Chemical Industries Ltd.).

[1] = chemotherapeutic agent used alone
[2] = in the presence of peptide (SEQ ID NO:2) 50 µg/ml

Row | Structure (SMILES) | potentiation of apoptosis-inducing activity | EC50 [1] | EC50 [2]
1 | CC[C@]1(O)C[C@H]2CN(CCc3c([nH]c4ccccc34)[C@@](C(=O)OC)(c3cc4c(cc3OC)N(C=O)[C@H]3[C@@](O)(C(=O)OC)[C@H](OC(C)=O)[C@]5(CC)C=CCN6CC[C@]43[C@@H]65)C2)C1 [VCR, vincristin] | ~27,000 fold | 111 mg/L | 0.0036 mg/L
2 | COc1cccc2c1C(=O)c1c(O)c3c(c(O)c1C2=O)C[C@@](O)(C(=O)CO)C[C@@H]3O[C@H]1C[C@H](N)[C@H](O)[C@H](C)O1 [DOX, doxorubicin] | ~7.6 fold | 0.293 mg/L | 0.039 mg/L
3 | Cc1c2oc3c(C)ccc(C(=O)N[C@@H]4C(=O)N[C@H](C(C)C)C(=O)N5CCC[C@H]5C(=O)N(C)CC(=O)N(C)[C@@H](C(C)C)C(=O)O[C@@H]4C)c3nc-2c(C(=O)N[C@@H]2C(=O)N[C@H](C(C)C)C(=O)N3CCC[C@H]3C(=O)N(C)CC(=O)N(C)[C@@H](C(C)C)C(=O)O[C@@H]2C)c(N)c1=O [AcD, actinomycin D] (I: T[dV]P[Sar][NMeV] / II: T[dV]P[Sar][NMeV]; ester I:1-I:C, II:1-II:C; linker I:N-II:N via Actinocin(9to1)) | ~40,000 fold | 763 nM | 0.0145 nM
